Experimental data taken from patent US6531636B1, “Synthetic endogenous cannabinoids analogues and uses thereof” (priority 1998, dated 2003).

Key:
mice = experiment: Analgesia, standard hot plate test in mice; assay type: in vivo; conditions: intravenous injection in tail vein
Method: The novel compounds prepared as described above were evaluated for their potency in […], according to the standard hot plate test, as briefly described hereinafter.
The compounds of the invention (HU-310, HU-313 and HU-314) wee dissolved in a detergent (Emulphomethanol:saline (5:5:90)) mixture and administered by intravenous injection in the tail vein of mice with an injection volume of 0.1 ml/10 g of body weight.

[1] = test system: pigeons suffering from emesia caused by cisplatin; experiment: Antiemetic activity, cisplatin-induced emesis in pigeons; assay type: in vivo; conditions: subcutaneous
Method: The compounds of the invention were also evaluated for their potency as an antiemetic agent following the procedure described by Feigenbaum et al., [Eur. J. Pharmacol. 169:159-165 (1989, wherein pigeons suffering from emesia caused by an antineoplastic drug (cisplatin) were used as the model.
Accordingly, each compound was dissolved in Emulphor (detergent):ethanol:saline (5:5:90) and administered subcutaneously to the pigeons. The injection volume was 1.0 ml/kg body weight. Reduction of vomiting with 2-O-Arachidonyl glyceryl ether (HU-310) was 50% when using 3.0 mg of the active ingredient per kg body weight.

[2] = test system: female mice, arachidonic acid-induced paw swelling; experiment: Arachidonic acid-induced paw edema in mice; assay type: in vivo; conditions: paw volume 30 min after arachidonic acid
Method: The potency of each of the compounds of the invention were evaluated for their potency to act as anti-inflammatory agents, according to the method described Calhoun W. et al., [Calhoun W. et al. Agents and Actions 21:306-309 (1987)]. In the method, water was substituted for mercury as the displacement medium. Platelet Activating Factor (PAF) (1.0 μg) or arachidonic acid (1.0 mg) dissolved in […] of a saline buffer containing 5% ethanol were injected subcutaneously into the plantar surface of the right hind paw of ether anaesthetized female mice (20-25 gr). The volume of the right foot was measured to the level of the lateral malleous by water displacement before treatment and 15 min after PAF injection or 30 min after arachidonic injection. The change in paw volume was calculated for each mouse. Table 2 presents the inhibition of archidonic acid induced paw swelling. The values obtained are measured as the increase in paw volume using a plethysmometer. The degree of swelling was expressed as the percentage in drug-treated mice compared to inhibition of paw edema from vehicle (Emulphor:ethanol:saline) treated controls (95% significance by ANOVA. N=5 mice/group). Control animals received peanut oil (50 μl).

[3] = test system: rats, mean arterial pressure; experiment: Hypotensive effect in non-anaesthetized cannulated rats; assay type: in vivo; conditions: dose 12 mg/Kg
Method: To evaluate the potency of the compounds of the present invention as anti-hypertension agents, each compound was dissolved in a mixture of ethanol:emulphor:saline (1:1:18) and administered to non-anaestisized rats, cannulated through the aorta (for injection) and the jugular view (for measurements of blood pressure). […]

CB1 receptor = target: T1, CB1 receptor (Rattus norvegicus, UniProt P20272); experiment: Competitive inhibition of [3H]HU-243 binding to CB1, synaptosomal membranes; conditions: [3H]HU-243 60 pM, synaptosomal membrane protein
T1 construct: 4 μg of synaptosomal membrane protein were homogenized in 50 mM Tris-HCl; from tissue; host or cells: synaptosomal membranes (brain tissue)
Method: In principle, 4 μg of synaptosomal membrane protein were homogenized in 50 mM Tris-HCl, 2 mM MgCl2 and 1 mM EDTA pH 7.4 to obtain the binding mixture having a final concentration of 60 pM, with which the Ki was determined according to the assay described by Devane et al. [Devane et al. (1992) ibid.]. […] Ki values were calculated according to following known equation: Ki-IC50/(1+[L]/Kd) wherein IC50 is the concentration of a compound that will reduce a specific binding of a given radioligand by 50%; [L] is the concentration of the radioligand used in the assay and Kd is the dissociation constant for the radioligand (see also FIG. 3).

[4] = test system: rabbits with chymotrypsin-induced glaucoma; experiment: Antiglaucoma activity, chymotrypsin-induced stable glaucoma in rabbits; assay type: in vivo; conditions: 0.01% in aqueous solution
Text: Each compound was further evaluated for their potency as agent for treating and/or preventing glaucoma. Accordingly, stable glaucoma was induced in rabbits by injecting into the eye δ-chymotrypsin as described by Mechoulam R. et al., [Mechoulam R. et al., The Therapeutic Potential of Marihuana eds S. Cohen, R. C. Stillman Plenum Press, N.Y., pp. 35-48 (1975)]. As a control, pilocarpine, a standard antiglaucoma drug, was employed showing intraocular pressure (I.O.P.) reduction at a concentration of 0.01% in aqueous solution and provided a period of 30 hours delay in the recovery of the original chymotrypsin-induced IOP.
The compounds of the invention were each dissolved in a detergent (Emulphor:ethanol:saline (5:5:90)) mixture and then further diluted with saline to obtain the desired concentrations.

T1 sequence (P20272 whole entry): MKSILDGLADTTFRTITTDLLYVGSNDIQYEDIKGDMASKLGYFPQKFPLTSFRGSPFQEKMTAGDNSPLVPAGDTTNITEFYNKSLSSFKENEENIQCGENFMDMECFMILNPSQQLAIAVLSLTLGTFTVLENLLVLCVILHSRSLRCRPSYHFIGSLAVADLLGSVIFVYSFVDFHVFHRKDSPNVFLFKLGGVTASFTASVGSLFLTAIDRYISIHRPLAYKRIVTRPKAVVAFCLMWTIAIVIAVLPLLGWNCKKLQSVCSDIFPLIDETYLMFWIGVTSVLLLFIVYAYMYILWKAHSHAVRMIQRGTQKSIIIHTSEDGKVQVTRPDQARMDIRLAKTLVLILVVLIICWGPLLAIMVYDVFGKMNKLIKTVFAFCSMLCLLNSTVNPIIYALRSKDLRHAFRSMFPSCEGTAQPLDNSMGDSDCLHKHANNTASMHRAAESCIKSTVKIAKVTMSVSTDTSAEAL

Compound | Analgesia, ED50 (mice) | Latency to maximal effect [3] | Maximal hypotension (difference in mean arterial pressure before and after drug) [3] | Time of recovery [3] | other results
CCCCC/C=C\C/C=C\C/C=C\C/C=C\CCCCOC(CO)CO [HU-310, 2-O-Arachidonyl glyceryl ether] | 2.8 mg/kg | 34.0 min | 105 mm Hg | 75.0 min | Reduction of vomiting ([1]; 3.0 mg per kg body weight): 50%; Inhibition of Arachidonic Acid-induced Paw Edema ([2]; dose 5 mg/kg): 70.2%; Inhibition of Arachidonic Acid-induced Paw Edema ([2]; dose 10 mg/kg): 92.2%; Inhibition of Arachidonic Acid-induced Paw Edema ([2]; dose 25 mg/kg): 100.0%; Ki (CB1 receptor): 62.3 ± 3 nM
CCCCC/C=C\C/C=C\C/C=C\CCCCCCCOC(CO)CO [HU-314, 2-dihomo-γ-linolenyl glyceryl ether] | 4.6 mg/kg |  |  |  | Reduction of vomiting (in words) ([1]; compared with HU-310): vomiting was also reduced, however to a lesser extent
CCCCC/C=C\C/C=C\C/C=C\C/C=C\CCCC(=O)NCCO [ANA, anandamide] |  | 2.0 min | 15 mm Hg | 7.0 min | 
CC[C@@H]1C(=O)OC[C@@H]1Cc1cncn1C [pilocarpine] |  |  |  |  | Delay in the recovery of the original chymotrypsin-induced IOP [4]: 30 h
CCCCC/C=C\C/C=C\C/C=C\C/C=C\CCCC(=O)OC(CO)CO [2-Ara-GL, 2-arachidonoyl glycerol] |  | 7.2 min | 34 mm Hg | 13.0 min | 
